The conditions of data set [1]: during the first 5-10 min, reference radioligands; cited from earlier work.
In data set [2] the target is T1, synthetic Aβ 1-40 (Homo sapiens, UniProt P05067).
T1 construct: using synthetic Aβ 1-40 in 2.7 nM of [^3H]PIB
The data set can be described thus: Competition binding assay with [^3H]PIB as radioligand. The procedure: (§1) Competition binding was performed in 384-well FB filter plates using synthetic Aβ 1-40 in 2.7 nM of [^3H]PIB (or another ^3H-labeled radioligand when so mentioned) in phosphate buffer at pH 7.5, by adding various concentrations of non-radioactive compounds originally dissolved in DMSO. The binding mixture was incubated for 30 min at room temperature, followed by vacuum filtration, and subsequentially by washing twice with 1% Triton-X100. Scintillation fluid was thereafter added to the collected Aβ 1-40 on the filter plate, and the activity of the bound remaining radioligand ([^3H]PIB or another ^3H-labeled radioligand) was measured using 1450 Microbeta from PerkinElmer.
Specific binding was determined according to the competition binding assay described herein. The determined IC50's in the competition binding assays (using [^3H]PIB as radioligand) of 5 compounds of the present invention are shown in Table 1. Results (activity of remaining [^3H]PIB versus increasing concentration of non-labeled compounds) from typical competition assay experiments are exemplified in FIG. 1. In a similar way, competition studies with ^3H-labeled heteroaryl substituted benzthiazole derivates of the present invention were also conducted. Such results, from a typical competition study, are examplified in FIG. 2. PIB and 2-[6-(methylamino)pyridin-3-yl]-1,3-benzothiazol-6-ol (a novel compound of the present invention) both displaced [N-methyl-^3H3]-2-(6-methylamino-pyridin-3-yl)-benzothiazol-6-ol (a ^3H-labeled compound of the present invention). The binding of [N-methyl-^3H3]-2-(6-methylamino-pyridin-3-yl)-benzothiazol-6-ol (example 32) to Aβ1-40 fibrils, was reversible as evident from the dissociation experiment exemplified in FIG. 3.

A short description of data set [3]: In vivo rat brain entry study. To be noted: i.v. The procedure: Brain exposure after i.v administration was determined in rat brains using cassette dosing. Four different compounds were dosed followed by plasma and brain sampling at 2 and 30 minutes after the dosing. 2 to 30 min brain concentration ratios, and percentage of total of injected dose after 2 mins found in brain, were calculated. The compound concentrations were determined by analysis of protein precipitated plasma samples by reversed-phase liquid chromatography coupled to a electrospray tandem mass spectrometer.
FIG. 4. Brain and plasma concentration at 2 and 30 minutes after i.v. administration in rat of PIB (upper graph “A”), and 2-[6-(methylamino)pyridin-3-yl]-1,3-benzothiazol-6-ol (lower graph “B”), a compound of the present intervention (example 27).

The target of data set [4] is T2, human synthetic Aβ 1-40 fibrils (Homo sapiens, UniProt P05067).
T2 construct: 2 μM human synthetic Aβ 1-40 fibrils in phosphate buffer pH 7.5
The data set can be described thus: Dissociation experiment. The class given is binding. To be noted: FIG. 3. The procedure: Dissociation experiments were performed in 96-well polypropylene deep well plates. 2 μM human synthetic Aβ 1-40 fibrils in phosphate buffer pH 7.5, or buffer alone as control, was incubated with 9 nM of a ^3H-labeled radioligand of the present invention for 4 h at room temperature. Dissociation was started at different time points, by the addition of an equal volume of a non-labeled compound of the present invention, or a reference compound (10 μM), in 4% DMSO in phosphate buffer at pH 7.5. The radioactivity still bound to the Aβ 1-40 fibrils at the end of the incubation was detected on FB filters after filtration in a Brandel apparatus using a wash buffer containing 0.1% Triton-X100.
FIG. 3. Example of a dissociation experiment: Dissociation of [N-methyl-^3H3]-2-(6-methylamino-pyridin-3-yl)-benzothiazol-6-ol (example 32) from Aβ1-40 fibrils over time.

In data set [5] the test system is amyloid plaques in APP/PS1 mouse brain. It counts as in vivo. The procedure: Naïve, awake mice were restrained and intravenously infused via the tail vein with either a tritium labeled compound of the present invention, or a tritium labeled reference compound via the tail vein. In one type of experiment, the animals were rapidly anesthetized with isofluorane and decapitated twenty minutes after compound administration (1 mCi). In another type of experiment, mice were given 1 mCi of a compound and were anesthetized and decapitated at a timepoint of 20, 40 or 80 minutes after administration. Brains were removed and frozen with powdered dry ice. Brains were sectioned (10 μm) in the coronal plane at the level of the striatum with a cryostat, thaw-mounted onto superfrost microscope slides and air-dried.
Methods designed to optimize the imaging of bound ligand after in vivo administration were thereafter employed. To selectively reduce unbound radioactivity levels, one-half of the sections were rinsed (3×10 minutes) in cold (1° C.) Tris buffer (50 mM, pH7.4) followed by a rapid rinse in cold (1° C.) deionized water. Sections were then air dried in front of a fan. Rinsed as well as unrinsed sections and tritium standards were exposed to phosphoimage plates (Fuji). Phosphoimage plates were processed with a Fujifilm BAS-2500 phosphoimager using BAS Reader software.

The test system of data set [6] is amyloid plaques in post-mortem human AD brains. The data set can be described thus: Binding to amyloid plaques in post-mortem human AD brain sections. The procedure:
(§2) Slide-mounted brain sections (10 μm) from APP/PS1 transgenic mice were collected at the level of the lateral septum (bregma+0.98 mm; see Paxinos and Franklin, 2001). Human cortical sections (7 μm) from two AD patients and 1 control subject were obtained from a Dutch tissue bank.
(§3) Sections were preincubated for 30 minutes at room temperature in 50 mM Tris HCl (pH 7.4) in the presence or absence of 1 μM PIB. Sections were transferred to buffer containing tritium-labeled compound (1 nM) with or without PIB (1 μM) and incubated for 30 minutes at room temperature. Incubation was terminated by 3 consecutive 10 minute rinses in buffer (1° C.) followed by a rapid rinse in distilled water (1° C.). Sections were air dried in front of a fan. Dried sections and plastic tritium standards (Amersham microscales-^3H) were apposed to phosphoimage plates (Fuji) in a cassette and exposed overnight. The following morning, the image plates were processed with a Fuji phosphoimager (BAS 2500) using BAS Reader software. The resulting image was converted to TIF format using Aida software, optimized with Adobe Photoshop (v 8.0) and quantified using Image-J (NIH). Data were statistically analyzed using Excel.

For data set [7], the system named is amyloid plaques in APP/PS1 transgenic mice brain sections. The data set can be described thus: Binding to amyloid plaques in APP/PS1 transgenic mouse brain sections. To be noted: 1 nM tritium-labeled compound. The procedure: as §2, §3
Data set [8] deals with T1, synthetic Aβ 1-40. The data set can be described thus: Competition binding assay with [N-methyl-^3H3]-2-(6-methylamino-pyridin-3-yl)-benzothiazol-6-ol as radioligand. To be noted: ^3H-labeled example 32 as radioligand, FIG. 2. The procedure:
as §1
Specific binding was determined according to the competition binding assay described herein. The determined IC50's in the competition binding assays (using [^3H]PIB as radioligand) of 5 compounds of the present invention are shown in Table 1. Results (activity of remaining [^3H]PIB versus increasing concentration of non-labeled compounds) from typical competition assay experiments are exemplified in FIG. 1. In a similar way, competition studies with ^3H-labeled heteroaryl substituted benzthiazole derivates of the present invention were also conducted. Such results, from a typical competition study, are examplified in FIG. 2. […]

Data set [9] can be described thus: Whole body PET measurement in monkey. It counts as in vivo. The procedure: Whole body PET-measurement was performed in one monkey. A sterile physiological phosphate buffer (pH=7.4) solution containing 51 MBq of [^11C]PIB in the first measurement, and 57 MBq of a [^11C]-labelled compound of the present invention in the second measurement, was injected as a bolus into a sural vein over a period of 5 seconds with simultaneous start of PET-data acquisition that lasted for 87 min. The time between radioligand injections was 2 h. PET measurements were assessed visually by creating planar maximum intensity projection images of decay uncorrected data and also converting decay corrected images to ones containing parts-per-million (ppm) values of the total injected radioactivity.

A short description of data set [10]: Brain PET study in monkey. The class given is in vivo. The procedure:
The monkey PET study aimed to assess and compare a [^11C]-labelled compound of this invention to [^11C]PIB regarding measures of brain availability, non-specific binding in the brain, whole body biodistribution, elimination and exploration of regional differences in uptake. Five brain PET measurements were performed in three monkeys under anesthesia. In each PET-measurement a sterile physiological phosphate buffer (pH=7.4) solution containing 52-55 MBq of either a [^11C]-labelled compound of this invention, or [^11C]PIB, was injected as a bolus into a sural vein over a period of 5 seconds with simultaneous start of PET-data acquisition. Radioactivity in brain was measured continuously for 93 minutes. Only [^11C]PIB measurement was performed in the first monkey. In the other two monkeys a [^11C]-labelled compound of the present invention was measured first and [^11C]PIB was administered in a subsequent measurement. The time between radioligand injections was approx. 2 h. PET measurements were evaluated with respect to the time-activity curve for the whole brain expressed as percent injected radioactivity dose.

Structures are written as SMILES. Like-named read-outs stand apart in the source and are kept apart here. Bounds are passed on as bounds.

T1 sequence (P05067 672-711 limits assumed): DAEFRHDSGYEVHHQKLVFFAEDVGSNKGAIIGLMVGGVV
T2 sequence (P05067 672-711 limits assumed): as above

Turning to `CCN1CCC[C@H]1CNC(=O)c1c(O)c(Cl)cc(Cl)c1O[11CH3]` (racemic) [[^11C]raclopride], the “fraction of the total injected radioactivity present in the brain” value in data set [1] was 1-2%.
By IC50 is commonly meant the concentration that inhibits the measured activity by half. The compound `CN1CCN(c2ccc(-c3nc4ccc(O)cc4s3)cn2)CC1` [Example 6, 2-[6-(4-Methylpiperazin-1-yl)pyridin-3-yl]-1,3-benzothiazol-6-ol Acetate] yielded a half-maximal inhibitory concentration (IC50) on synthetic Aβ 1-40 [2] of 176 nM.
As to `COc1ccc(-c2nc3ccc(C(N)=O)cc3s2)cn1` [Example 9, 2-(6-Methoxypyridin-3-yl)-1,3-benzothiazole-6-carboxamide], the IC50 at synthetic Aβ 1-40 [2] is 170 nM.
Still for that read-out and setting: the figure for `CC(=O)Nc1ccc2nc(-c3ccc(N4CCN(C)CC4)nc3)sc2c1` [Example 15, N-{2-[6-(4-Methylpiperazin-1-yl)pyridin-3-yl]-1,3-benzothiazol-6-yl}acetamide] is 186 nM.
Same read-out and setting: with `CNc1ccc(-c2nc3ccc(OC)cc3s2)cn1` [Example 25, 5-(6-Methoxy-1,3-benzothiazol-2-yl)-N-methylpyridin-2-amine] the figure was 58 nM.
As to `CNc1ccc(-c2nc3ccc(O)cc3s2)cn1` [Example 27, 2-[6-(Methylamino)pyridin-3-yl]-1,3-benzothiazol-6-ol], the “2 minute to 30 minute brain concentration ratio” value in data set [3] is on record as greater than 15. Also, the brain uptake value in data set [3] (2 min time point) is given as 1 % of the injected dose.
Consider `[3H]C([3H])([3H])Nc1ccc(-c2nc3ccc(O)cc3s2)cn1` [Example 32, [N-Methyl-^3H3]-2-(6-Methylamino-pyridin-3-yl)-benzothiazol-6-ol], for which the “reversibility of binding to Aβ1-40 fibrils” value in data set [4] is listed as “reversible”. The entries for the “cortical plaque labeling in rinsed tissue” value in [5] (20 minutes after administration) and in data set [5] (80 minutes after administration) were “highest” and “barely detectable”, respectively. For the same compound, in [5] (APP/PS1 mice, decapitation 20 minutes after administration), the “labeling of cortical structures after in vivo administration” value is recorded as “labeled cortical structures”. Besides, the “effect of in vitro rinse on levels in corpus callosum” value in data set [5] (corpus callosum (white matter)) is on record as “dramatically reduced”. For the same compound, the “reduction of nonspecific binding by in vitro rinse” value in data set [5] (striatum (gray matter)) is given as 78.5%. The “levels of nonspecific binding compared to [^3H]PIB” value in data set [6] (human cortical sections) was “substantially reduced”. Moreover, the “labeling of dense core plaques” value in data set [6] (human cortical sections, 1 nM tritium-labeled compound) is recorded as “labeled dense core plaques”; in data set [7], “labeled dense core plaques”. Moreover, in [6] (superficial gray layers of human cortex), the “specific binding levels greater than binding observed with [^3H]PIB” value is given as “approximately 40%”.
In the case of `CNc1ccc(-c2nc3ccc(O)cc3s2)cc1` [PIB], the “displacement of [N-methyl-^3H3]-2-(6-methylamino-pyridin-3-yl)-benzothiazol-6-ol” value at synthetic Aβ 1-40 [8] is “displaced”.
As to `[11CH3]Nc1ccc(-c2nc3ccc(O)cc3s2)cc1` [[^11C]PIB, reference compound], the elimination routes entry in data set [9] was “urinary excretion and hepatobiliary secretion”.
Turning to `[11CH3]Nc1ccc(-c2nc3ccc(O)cc3s2)cn1` [^11C-Example 1, [N-Methyl-^11C]-2-(6-Methylamino-pyridin-3-yl)-benzothiazol-6-ol], in data set [10] (monkey), the “brain concentration after the peak” value is recorded as “declined rapidly”. Also, in data set [10] (monkey brain, time points of relevance for PET-detection), the “unspecific binding as compared to [^11C]PIB” value is “significantly lower”. In addition, the brain exposure in data set [10] (monkey, FIG. 12) is reported as 1-3 % of total injected radioactivity. Also, the “time of peak brain uptake” value in data set [10] (monkey, after injection) is “first minute”. In addition, in [9], the “elimination as compared to [^11C]PIB” value is “faster elimination”; the elimination routes entry is “urinary excretion and hepatobiliary secretion”.

Source of the values: patent US8957215B2, “Heteroaryl substituted benzothiazoles” (Navidea Biopharmaceuticals, Inc., priority 2006, dated 2015).
